ChEMBL document CHEMBL1151650, “New Furostanol Glycosides from Asparagus plumosus Leaves” (J Nat Prod, 1985)

Tested on: Biomphalaria glabrata
Assay: Toxic molluscicidal activity against Biomphalaria glabrata
Format: ADME, organism-based
Details: in vivo

Structure (SMILES) | Activity
C[C@@H](CC[C@@]1(O)O[C@H]2C[C@H]3[C@@H]4CC=C5C[C@@H](O[C@@H]6O[C@H](CO)[C@@H](O)[C@H](O[C@@H]7O[C@@H](C)[C@H](O)[C@@H](O)[C@H]7O)[C@H]6O[C@@H]6O[C@@H](C)[C@H](O)[C@@H](O)[C@H]6O)CC[C@]5(C)[C@H]4CC[C@]3(C)[C@H]2[C@@H]1C)CO[C@@H]1O[C@H](CO)[C@@H](O)[C@H](O)[C@H]1O | Non-toxic
CO[C@]1(CC[C@H](C)CO[C@@H]2O[C@H](CO)[C@@H](O)[C@H](O)[C@H]2O)O[C@H]2C[C@H]3[C@@H]4CC=C5C[C@@H](O[C@@H]6O[C@H](CO)[C@@H](O)[C@H](O[C@@H]7O[C@@H](C)[C@H](O)[C@@H](O)[C@H]7O)[C@H]6O[C@@H]6O[C@@H](C)[C@H](O)[C@@H](O)[C@H]6O)CC[C@]5(C)[C@H]4CC[C@]3(C)[C@H]2[C@@H]1C | Non-toxic
